Data set [1] can be described thus: Zeta-potential of C60-ser aggregates. Type of data set: physicochemical. The settings on record: 0.1 mg/mL and 10 mg/mL in deionized water. Here is the method:
Analysis was performed using a ZEN 3600 Malvern Zetasizer (Worcestershire, UK) equipped with a 633 nm laser. The electrophoretic mobilities (p) of the aggregates was measured by applying an electric field to the C60-ser solution and measuring the speed and direction of the aggregate's motion. Zeta-potentials were calculated using the solvent viscosity (n) and the water dielectric constant (e). To perform the measurements, C60-ser molecules were dissolved in deionized water, and the solution electrical conductivity was adjusted to 25-50 μS/cm by addition of small amounts of neutral 2-(N-morpholino)ethanesulfonic acid (MES) buffer. The zeta-potential of C60-ser aggregates was measured at a concentration of 0.1 mg/mL in deionized water (FIG. 5A) and 10 mg/mL in deionized water (FIG. 5B).

Another data set deals with NIH3T3 cells. The experiment in a line: Classic clonogenics survival assay of irradiated cells, NIH3T3. Type of data set: cell-based. How it is done: A classic clonogenics assay was performed to further test the ability of C60-ser to protect against radiation damage. After irradiation, a fraction of the cells will undergo radiation-induced death, whereas other cells remain metabolically active and are able to undergo a few cycles of mitosis before meeting their endpoint. Since many cells remain metabolically activity, classic toxicity measurements such as an MTT measurement are not able to catch the full effects of radiation damage. In contrast, a classic clonogenics assay, which plates a known number of cells and tracks development of colonies, is able to track the number of cells that maintain their clonogenicity. With increasing radiation doses, the fraction of cells that maintain clonogenicity decrease. Therefore, a successful radioprotectant is able to increase the number of surviving colonies compared to the control at the same radiation doses.
N2A, NIH3T3, and HepG2 cells were plated in 35 mm dishes and treated with 100 μM C60-ser for 2 hours prior to washing with PBS and irradiation at 0, 2, 4, and 6 Gy with a 230 MeV proton beam. Following radiation, a known number of cells were re-plated in six well plates and allowed to grow in culture for 8-14 days to allow for colony formation. To account for cell death with higher radiation doses, a larger number of cells were plated with increasing doses received. […]

A short description of data set [2]: SEM analysis of C60-ser aggregates. Format: physicochemical. The settings on record: frozen and vacuum-dried solutions. How it is done:
Solutions of C60-ser were frozen with liquid nitrogen and dried under high vacuum while still frozen. FIGS. 3A and 3B show example scanning electron microscopy (SEM) images of aggregates of C60-ser. The aggregates formed when solid C60-ser was dissolved in water or an aqueous salt solution. The aggregates formed within a period of seconds to several hours, after which the system remained in equilibrium.

For the molecule `O=C(NC(CO)CO)C1(C(=O)NC(CO)CO)C23c4c5c6c7c8c4-c4c2c2c9c%10c4C4%11c%12c-%10c%10c%13c%14c%12-c%12c(c-7c7c%15c%12C%14%12C(C(=O)NC(CO)CO)(C(=O)NC(CO)CO)C%12%14c%12c%16c%17c%18c(c%12-%15)C7%12C(C(=O)NC(CO)CO)(C(=O)NC(CO)CO)C6%12c6c-5c5c7c(c6-%18)C%176C(C(=O)NC(CO)CO)(C(=O)NC(CO)CO)C6%12c6c-7c(c-2c2c6-c6c%12c-%16c%14c-%13c6C%106C(C(=O)NC(CO)CO)(C(=O)NC(CO)CO)C926)C513)C84C%11(C(=O)NC(CO)CO)C(=O)NC(CO)CO` (stereo not shown) [C60-ser, C60-serinol], the zeta-potentials of aggregates result in data set [1] is reported as “close to zero”. Besides, the “fraction of surviving cells” value in the data set with NIH3T3 cells (NIH3T3, 100 μM 2 hours before irradiation) is “increased the fraction of surviving cells”. Further, in the data set with NIH3T3 cells (NIH3T3, 100 μM 2 hours, 0-6 Gy 230 MeV proton), the “dose enhancement factor (DEF) at 20% surviving fraction” value is 0.85±0.03. In addition, in data set [2], the “internal diameters of hollow hull aggregates” value is given as 40-1000 nm.

The values are drawn from patent US20240189263A1, “DERIVATIZED C60 MOLECULES AND METHODS AND MATERIALS FOR USING DERIVATIZED C60 MOLECULES TO REDUCE RADIATION INJURY” (Mayo Foundation for Medical Education and Research, priority 2021, published 2024).
